Data from patent US7625894B2, “Pyrrolo[2,3-d]Pyrimidines as Protein Tyrosine Kinase Inhibitors” (Novartis AG, priority 2004, dated 2009).

Columns and labels:
EGF-R (HER-1) = EGF-R (HER-1) (Homo sapiens, UniProt P00533); experiment: Inhibition of the tyrosine kinase activity of EGF-R (HER-1); assay type: biochemical; design: dose or concentration left out as unconfirmed
VEGF receptor (KDR) = target: T1, VEGF receptor (KDR) (Homo sapiens, UniProt P35968); experiment: Inhibition of VEGF-induced KDR-receptor autophosphorylation in transfected CHO cells; assay type: cell-based
T1 construct: expressed in transfected cells
Description: The inhibition of VEGF-induced KDR-receptor autophosphorylation can be confirmed with a further in vitro experiment in cells: transfected CHO cells, which permanently express human VEGF receptor (KDR), are seeded in complete culture medium with 10% fetal calf serum (FCS) in 6-well cell-culture plates and incubated at 37° C. under 5% CO2 until they show about 80% confluency. The compounds to be tested are then diluted in culture medium (without FCS, with 0.1% bovine serum albumin) and added to the cells. (Controls comprise medium without test compounds). After two hours of incubation at 37° C., recombinant VEGF is added; the final VEGF concentration is 20 ng/mL). After a further five minute incubation at 37° C., the cells are washed twice with ice-cold PBS (phosphate-buffered saline) and immediately lysed in 100 μL lysis buffer per well. The lysates are then centrifuged to remove the cell nuclei, and the protein concentrations of the supernatants are determined using a commercial protein assay (BIORAD). The lysates can then either be immediately used or, if necessary, stored at −20° C.
A sandwich ELISA is carried out to measure the KDR-receptor phosphorylation: a monoclonal antibody to KDR (for example Mab 1495.12.14) is immobilized on black ELISA plates (OptiPlate™ HTRF-96 from Packard). The plates are then washed and the remaining free protein-binding sites are saturated with 1% BSA in PBS. The cell lysates (20 μg protein per well) are then incubated in these plates overnight at 4° C. together with an anti-phosphotyrosine antibody coupled with alkaline phosphatase (PY20: AP from Transduction Laboratories). […] The luminescence is measured in a Packard Top Count Microplate Scintillation Counter (Top Count). The difference between the signal of the positive control (stimulated with VEGF) and that of the negative control (not stimulated with VEGF) corresponds to VEGF-induced KDR-receptor phosphorylation (=100%). The activity of the tested substances is calculated as % inhibition of VEGF-induced KDR-receptor phosphorylation, wherein the concentration of substance that induces half the maximum inhibition is defined as the IC50 (effective dose for 50% inhibition).

c-Abl = target: T2, c-Abl (Homo sapiens, UniProt P00519); experiment: Test for activity against c-Abl protein tyrosine kinase (filter binding assay); assay type: biochemical
T2 construct: The His-tagged kinase domain of c-Abl is cloned and expressed in the baculovirus/Sf9 system; His; made in house; host or cells: baculovirus/Sf9
T2 sequence (P00519 242-493 limits assumed): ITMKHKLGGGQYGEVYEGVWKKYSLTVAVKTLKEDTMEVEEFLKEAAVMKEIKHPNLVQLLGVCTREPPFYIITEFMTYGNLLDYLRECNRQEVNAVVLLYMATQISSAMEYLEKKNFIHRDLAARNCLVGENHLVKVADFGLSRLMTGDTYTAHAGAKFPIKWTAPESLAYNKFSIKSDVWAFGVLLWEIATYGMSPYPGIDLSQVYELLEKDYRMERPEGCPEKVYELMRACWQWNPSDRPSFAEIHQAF
Description: Test for activity against c-Abl protein tyrosine kinase. The test is conducted as a filter binding assay as follows: The His-tagged kinase domain of c-Abl is cloned and expressed in the baculovirus/Sf9 system as described by Bhat et al., J. Biol. Chem. 272, 16170-5 (1997). A protein of 37 kD (c-Abl kinase) is purified by a two-step procedure over a cobalt metal chelate column followed by an anion exchange column with a yield of 1-2 mg/L of Sf9 cells. The purity of the c-Abl kinase is >90% as judged by SDS-PAGE after Coomassie blue staining. The assay contains: c-Abl kinase (50 ng), 20 mM Tris.HCl, pH 7.5, 10 mM MgCl2, 10 μM Na3VO4, 1 mM DTT and 0.06 μCi/assay [γ^33 P]-ATP (5 μM ATP) using 30 μg/mL poly-Ala,Glu,Lys,Tyr-6:2:5:1 (Poly-AEKY, Sigma P1152) in the presence of 1% DMSO, total volume of 30 μL. Reactions are terminated by adding 10 μL of 250 mM EDTA, and 30 μL of the reaction mixture is transferred onto Immobilon-PVDF membrane (Millipore, Bedford, Mass., USA) previously soaked for 5 min with methanol, rinsed with water, then soaked for 5 min with 0.5% H3PO4 and mounted on vacuum manifold with disconnected vacuum source. After spotting all samples, vacuum is connected and each well rinsed with 200 μL 0.5% H3PO4. Membranes are removed and washed on a shaker with 0.5% H3PO4 (4 times) and once with ethanol. Membranes are counted after drying at ambient temperature, mounting in Packard TopCount 96-well frame, and addition of 10 μL/well of Microscint™ (Packard).

T1 sequence (P35968 20-1356): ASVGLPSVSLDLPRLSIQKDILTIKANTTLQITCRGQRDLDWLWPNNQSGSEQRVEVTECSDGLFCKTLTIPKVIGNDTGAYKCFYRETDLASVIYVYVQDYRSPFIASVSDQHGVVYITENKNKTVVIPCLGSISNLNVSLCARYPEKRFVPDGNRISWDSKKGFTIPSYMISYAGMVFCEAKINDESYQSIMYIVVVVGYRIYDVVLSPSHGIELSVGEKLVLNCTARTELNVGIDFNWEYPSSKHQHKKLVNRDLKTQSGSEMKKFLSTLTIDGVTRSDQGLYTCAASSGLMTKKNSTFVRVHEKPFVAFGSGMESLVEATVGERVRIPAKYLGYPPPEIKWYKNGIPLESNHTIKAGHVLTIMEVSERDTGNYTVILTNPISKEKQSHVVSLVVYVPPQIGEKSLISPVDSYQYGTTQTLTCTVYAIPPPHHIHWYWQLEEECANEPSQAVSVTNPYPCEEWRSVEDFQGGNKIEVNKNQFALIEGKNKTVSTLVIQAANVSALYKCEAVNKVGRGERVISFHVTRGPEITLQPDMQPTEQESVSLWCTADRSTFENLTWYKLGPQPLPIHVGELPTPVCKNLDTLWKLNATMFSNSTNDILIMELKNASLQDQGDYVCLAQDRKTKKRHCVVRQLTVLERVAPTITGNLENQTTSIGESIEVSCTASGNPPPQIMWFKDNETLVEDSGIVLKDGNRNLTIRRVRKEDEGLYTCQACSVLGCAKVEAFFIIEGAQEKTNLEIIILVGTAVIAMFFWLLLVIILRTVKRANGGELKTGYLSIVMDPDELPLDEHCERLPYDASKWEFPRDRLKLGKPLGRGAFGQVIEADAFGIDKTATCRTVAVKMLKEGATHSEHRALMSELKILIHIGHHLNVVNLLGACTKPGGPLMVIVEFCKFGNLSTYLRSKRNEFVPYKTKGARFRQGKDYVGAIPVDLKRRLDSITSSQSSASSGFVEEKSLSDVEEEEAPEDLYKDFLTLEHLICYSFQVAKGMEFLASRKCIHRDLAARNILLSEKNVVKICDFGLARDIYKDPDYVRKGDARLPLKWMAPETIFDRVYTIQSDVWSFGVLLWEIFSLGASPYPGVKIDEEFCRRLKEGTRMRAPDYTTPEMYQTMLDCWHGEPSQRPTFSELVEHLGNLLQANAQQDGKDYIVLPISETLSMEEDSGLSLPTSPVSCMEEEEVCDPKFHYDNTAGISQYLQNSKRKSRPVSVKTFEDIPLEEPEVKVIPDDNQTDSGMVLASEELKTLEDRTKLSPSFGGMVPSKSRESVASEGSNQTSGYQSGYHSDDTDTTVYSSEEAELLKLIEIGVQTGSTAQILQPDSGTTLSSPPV

Compound	HER-1/ %-inh. [%] (EGF-R (HER-1))	KDR (% inh) (VEGF receptor (KDR))	IC50 (c-Abl)
CN1CCN(C(=O)c2ccc(-c3cc4c(N(C)C)ncnc4[nH]3)cc2)CC1 [Example 3, [4-(4-Dimethylamino-7H-pyrrolo[2,3-d]pyrimidin-6-yl)-phenyl]-(4-methyl-piperazin-1-yl)-methanone]	59%	85%	19 nM
CN1CCN(Cc2ccc(-c3cc4c(N(C)C)ncnc4[nH]3)cc2)CC1 [Example 4, Dimethyl-{6-[4-(4-methyl-piperazin-1-ylmethyl)-phenyl]-7H-pyrrolo[2,3-d]pyrimidin-4-yl}-amine]	64%	86%	32 nM
CCN(CC)CCCNC(=O)c1ccc(-c2cc3c(N(C)C)ncnc3[nH]2)cc1 [Example 5, N-(3-Diethylamino-propyl)-4-(4-dimethylamino-7H-pyrrolo[2,3-d]pyrimidin-6-yl)-benzamide]	58%	79%	21 nM
CN(C)c1ncnc2[nH]c(-c3ccc(C(=O)NCCCN4CCOCC4)cc3)cc12 [Example 7, 4-(4-Dimethylamino-7H-pyrrolo[2,3-d]pyrimidin-6-yl)-N-(3-morpholin-4-yl-propyl)-benzamide]	59%	79%	25 nM
CN1CCN(C(=O)c2ccc(-c3cc4c(NCCCO)ncnc4[nH]3)cc2)CC1 [Example 15, {4-[4-(3-Hydroxy-propylamino)-7H-pyrrolo[2,3-d]pyrimidin-6-yl]-phenyl}-(4-methyl-piperazin-1-yl)-methanone]	94%	80%	14 nM
CCCN(C)c1ncnc2[nH]c(-c3ccc(CN4CCN(C)CC4)cc3)cc12 [Example 19, Methyl-{6-[4-(4-methyl-piperazin-1-ylmethyl)-phenyl]-7H-pyrrolo[2,3-d]pyrimidin-4-yl}-propyl-amine]	97%	85%	11 nM
CN(C)c1ncnc2[nH]c(-c3ccc(Cn4ccnc4)cc3)cc12 [Example 24, [6-(4-Imidazol-1-ylmethyl-phenyl)-7H-pyrrolo[2,3-d]pyrimidin-4-yl]-dimethylamine]	93%	75%	11 nM
CN(C)c1ncnc2[nH]c(-c3ccc(CNCCCO)cc3)cc12 [Example 28, 3-[4-(4-Dimethylamino-7H-pyrrolo[2,3-d]pyrimidin-6-yl)-benzylamino]-propan-1-ol]	85%	76%	
COCCN(C)Cc1ccc(-c2cc3c(N(C)C)ncnc3[nH]2)cc1 [Example 29, [6-(4-{[(2-Methoxy-ethyl)-methyl-amino]-methyl}-phenyl)-7H-pyrrolo[2,3-d]pyrimidin-4-yl]-dimethyl-amine]	79%	76%	
CCC(O)(CC)c1ccc(-c2cc3c(NCCCn4cccc4)ncnc3[nH]2)cc1 [Example 33, 3-{4-[4-(3-Pyrrol-1-yl-propylamino)-7H-pyrrolo[2,3-d]pyrimidin-6-yl]-phenyl}-pentan-3-ol]	98%	84%	130 nM
CN(C)c1ncnc2[nH]c(-c3ccc(C(C)(C)O)cc3)cc12 [Example 34, 2-[4-(4-Dimethylamino-7H-pyrrolo[2,3-d]pyrimidin-6-yl)-phenyl]-propan-2-ol]	54%	66%	21 nM
[4-(4-Methylamino-7H-pyrrolo[2,3-d]pyrimidin-6-yl)-phenyl]-morpholin-4-yl-methanone [Example 2]	78%	77%	35 nM

Further compounds by falling IC50 (c-Abl), results first:

HER-1/ %-inh. [%] (EGF-R (HER-1))	KDR (% inh) (VEGF receptor (KDR))	IC50 (c-Abl)	Compound
94%	85%	11 nM	CNc1ncnc2[nH]c(-c3ccc(CN4CCN(C)CC4)cc3)cc12 [Example 16, Methyl-{6-[4-(4-methyl-piperazin-1-ylmethyl)-phenyl]-7H-pyrrolo[2,3-d]pyrimidin-4-yl}-amine]
83%	58%	10 nM	CN(C)c1ncnc2[nH]c(-c3ccc(Cn4cnnn4)cc3)cc12 [Example 27, Dimethyl-[6-(4-tetrazol-1-ylmethyl-phenyl)-7H-pyrrolo[2,3-d]pyrimidin-4-yl]-amine]
90%	76%	10 nM	CNc1ncnc2[nH]c(-c3ccc(C(C)(C)O)cc3)cc12 [Example 35, 2-[4-(4-Methylamino-7H-pyrrolo[2,3-d]pyrimidin-6-yl)-phenyl]-propan-2-ol]
57%	50%	9 nM	CN(C)c1ncnc2[nH]c(-c3ccc(Cc4ccc[nH]4)cc3)cc12 [Example 25, Dimethyl-{6-[4-(1H-pyrrol-2-ylmethyl)-phenyl]-7H-pyrrolo[2,3-d]pyrimidin-4-yl}-amine]
98%	83%	6 nM	CCCNc1ncnc2[nH]c(-c3ccc(CN4CCN(C)CC4)cc3)cc12 [Example 18, {6-[4-(4-Methyl-piperazin-1-ylmethyl)-phenyl]-7H-pyrrolo[2,3-d]pyrimidin-4-yl}-propyl-amine]
95%	81%	5 nM	CCCNc1ncnc2[nH]c(-c3ccc(C(=O)N4CCN(C)CC4)cc3)cc12 [Example 17, (4-Methyl-piperazin-1-yl)-[4-(4-propylamino-7H-pyrrolo[2,3-d]pyrimidin-6-yl)-phenyl]-methanone]
85%	67%	4 nM	CNc1ncnc2[nH]c(-c3ccc(C(=O)N4CCN(C)CC4)cc3)cc12 [Example 12, [4-(4-Methylamino-7H-pyrrolo[2,3-d]pyrimidin-6-yl)-phenyl]-(4-methyl-piperazin-1-yl)-methanone]
70%	83%	2.6 nM	CN(C)c1ncnc2[nH]c(-c3ccc(C(=O)N4CCOCC4)cc3)cc12 [Example 6, [4-(4-Dimethylamino-7H-pyrrolo[2,3-d]pyrimidin-6-yl)-phenyl]-morpholin-4-yl-methanone]
